Assay results taken from patent US20240208989A1, “NOVEL 12-EPI-MUTILIN COMPOUNDS AND USES THEREOF” (NABRIVA THERAPEUTICS GMBH, priority 2021, published 2024).
≈ marks a conversion by molar mass, not a printed value. Structures can show the parent of a compound that is named as a salt. Where two headings read alike, the source gives them in different places.

Experiments:
[1] = tested on: Borreliella spp.; test: MIC by broth microdilution against Borreliella strains; format: cell-based, Borreliella burgdorferi (n=5) and Borreliella garinii (n=1); conditions: BSK II medium, n = 6 isolates
Experimental: Minimal inhibitory concentrations (MIC) were determined against five (n=5) Borreliella burgdorferi isolates (ATCC 51990, 55131, 35211, 35210, 53899) and one (n=1) Borreliella garinii isolate (ATCC 51991) by broth microdilution technique ([…]., Jorgensen, J. H., Barbour, A. G. In vitro antimicrobial susceptibility testing of Boreliella burgdorferi: a microdilution MIC method and time-kill studies. […] Feng, J., Wang, T., Shi, W., et al. Identification of novel activity against Boreliella burgdorferi persisters using an FDA approved drug library. […] (2018) Methods for dilution antimicrobial susceptibility tests for bacteria that grow aerobically: Eleventh edition. […]; CLSI. (2021) Performance Standards for Antimicrobial Susceptibility Testing: Thirty-first Edition. M100-S31). Briefly, Borreliella spp. were grown at 36° C. under microaerophilic conditions in BSK II medium until the logarithmic or stationary growth phase was reached. The growth phase was determined by semiquantitative measurement of active and dormant cells by fluorescence microscopy of cells stained with the fluorescent dyes SYBR Green I and propidium iodide. An inoculum of 10^5-10^6 spirochetes/mL was used to inoculate broth microdilution plates containing serially 2-fold diluted test compounds.

[2] = Cytotoxicity, human hepatocyte assay (ATPlite); format: cell-based; conditions: primary human hepatocytes
Experimental: The cytotoxicity for compounds of the present invention was determined using a human hepatocyte assay. Primary human hepatocytes were incubated with various test compound concentrations (in triplicate) for 2 hours. Viability of cells is then measured by the luminescence ATPlite detection assay system according to the manufacturer (Perkin Elmer). ATP is a marker for cell viability because it is present in all metabolically active cells and the concentration declines very rapidly when the cells undergo necrosis or apoptosis. The ATPlite assay system is based on the production of light caused by the reaction of ATP with added luciferase and D-luciferin, where the emitted light is proportional to the ATP concentration (within certain limits).

[3] = tested on: Cutibacterium acnes; test: MIC by standard agar dilution (CLSI M11), anaerobic; format: cell-based; conditions: Wilkins-Chalgren-Agar, 48 h, 37° C., read-out: MIC Cutibacterium acnes (n = 5)
[4] = tested on: Cutibacterium avidum; test: as above; format: cell-based; conditions: Wilkins-Chalgren-Agar, 48 h, 37° C., read-out: MIC Cutibacterium avidum (n = 5)
[5] = tested on: Staphylococcus aureus cfr (+); test: MIC by standard broth microdilution (CLSI), CAMHB; format: cell-based; conditions: for MIC: Staphylococcus aureus, read-out: MIC Staphylococcus aureus cfr (+) (n = 2), Lefamulin resistant, n = 2 isolates
Experimental: (§1) The in vitro activity against bacteria including isolates that are resistant to Lefamulin was determined by standard broth microdilution according to the Clinical and Laboratory Standards Institute CLSI document (Performance Standards for Antimicrobial Susceptibility Testing) M100Ed29E (2019) and (Methods for Dilution Antimicrobial Susceptibility Test for Bacteria That Grow Aerobically) M07Ed11 (2018) or other years' versions thereof. The data were obtained using cation-adjusted Mueller Hinton broth medium (CAMHB).

[6] = tested on: Staphylococcus aureus vga(A) (+); test: MIC by standard broth microdilution (CLSI), CAMHB; format: cell-based; conditions: Lefamulin resistant; for MIC: Staphylococcus aureus
Experimental: as §1

[7] = tested on: Staphylococcus aureus ATCC49951; test: MIC by standard broth microdilution (CLSI), CAMHB; format: cell-based; conditions: for MIC: Staphylococcus aureus, ATCC49951
Experimental: as §1

[8] = tested on: Streptococcus agalactiae lsa(E); test: MIC by standard broth microdilution (CLSI), CAMHB; format: cell-based; conditions: for MIC: Streptococcus agalactiae, read-out: MIC Streptococcus agalactiae lsa(E) (n = 2), Lefamulin resistant, n = 2 isolates
Experimental: as §1

[9] = tested on: Streptococcus pneumoniae ATCC49619; test: MIC by standard broth microdilution (CLSI), CAMHB; format: cell-based; conditions: for MIC: Streptococcus pneumoniae, ATCC49619
Experimental: as §1

[10] = tested on: Cutibacterium granulosum; test: MIC by standard agar dilution (CLSI M11), anaerobic; format: cell-based; conditions: Wilkins-Chalgren-Agar, 48 h, 37° C., read-out: MIC Cutibacterium granulosum (n = 7)
[11] = 192 h, stationary growth phase, read after 8 days, read-out: MIC (μg/mL) for Stationary Growth Phase Culture (n = 6)
[12] = logarithmic growth phase, read after 5 or 6 days, read-out: MIC (μg/mL) for Logarithmic Growth Phase Culture (n = 6)
[13] = Lefamulin resistant, n = 2 isolates

Molecule | MIC [1, 11] | MIC [1, 12] | MIC [3] | MIC [4] | MIC [10] | further results
C[C@H]1COc2c(N3CCN(C)CC3)c(F)cc3c(=O)c(C(=O)O)cn1c23 [Levofloxacin] | 2 to 8 µg/mL (≈ 5.53 to 22.1 µM) | 2 to 4 µg/mL (≈ 5.53 to 11.1 µM) | – | – | – | –
C[C@@H]1CC[C@@]23CCC(=O)[C@H]2[C@]1(C)[C@H](OC(=O)CS[C@H]1CO[C@H]2[C@@H]1OC[C@@H]2N)C[C@](C)(/C=C/c1cccnc1)[C@@H](O)[C@@H]3C [Example 1, 12-epi-12-Desvinyl-14-O-{[(3S,3aR,6S,6aS)-3-amino-2,3,3a,5,6,6a-hexahydrofuro[3,2-b]furan-6-yl]sulfanylacetyl}-12-[(E)-2-(3-pyridyl)-ethenyl]-mutilin dihydrochloride] | 0.001 to 0.004 µg/mL | 0.001 to 0.002 µg/mL | 0.015 to 0.12 µg/mL | 0.015 to 0.06 µg/mL | 0.015 to 0.03 µg/mL | IC50 at 2 h [2]: 215 µM; MIC [5]: 0.12 to 0.5 µg/mL; MIC [6]: 0.5 µg/mL; MIC [7]: ≤ 0.03 µg/mL; MIC [8]: 0.06 to 0.12 µg/mL; MIC [9]: ≤ 0.03 µg/mL
CC[C@H]1OC(=O)[C@H](C)[C@@H](O[C@H]2C[C@@](C)(OC)[C@@H](O)[C@H](C)O2)[C@H](C)[C@@H](O[C@@H]2O[C@H](C)C[C@H](N(C)C)[C@H]2O)[C@](C)(O)C[C@@H](C)CN(C)[C@H](C)[C@@H](O)[C@]1(C)O [Azithromycin] | 0.001 to 0.004 µg/mL (≈ 0.00134 to 0.00534 µM) | 0.001 to 0.004 µg/mL (≈ 0.00134 to 0.00534 µM) | – | – | – | –
CO/N=C(\C(=O)N[C@@H]1C(=O)N2C(C(=O)O)=C(CSc3nc(=O)c(=O)[nH]n3C)CS[C@H]12)c1csc(N)n1 [Ceftriaxone] | 0.004 to 0.03 µg/mL (≈ 0.00721 to 0.0541 µM) | 0.004 to 0.016 µg/mL (≈ 0.00721 to 0.0289 µM) | – | – | – | –
CC1(C)S[C@@H]2[C@H](NC(=O)[C@H](N)c3ccc(O)cc3)C(=O)N2[C@H]1C(=O)O [Amoxicillin] | 0.03 to 0.12 µg/mL (≈ 0.0821 to 0.328 µM) | 0.03 to 0.12 µg/mL (≈ 0.0821 to 0.328 µM) | – | – | – | –
C=C[C@]1(C)C[C@@H](OC(=O)CS[C@@H]2CC[C@@H](N)C[C@H]2O)[C@]2(C)[C@H](C)CC[C@]3(CCC(=O)[C@H]32)[C@@H](C)[C@@H]1O [Lefamulin, reference compound] | 0.001 to 0.008 µg/mL (≈ 0.00197 to 0.0158 µM) | 0.001 to 0.008 µg/mL (≈ 0.00197 to 0.0158 µM) | 0.03 to 0.5 µg/mL (≈ 0.0591 to 0.985 µM) | 0.03 to 0.06 µg/mL (≈ 0.0591 to 0.118 µM) | 0.015 to 0.25 µg/mL (≈ 0.0295 to 0.492 µM) | MIC [5]: 16 µg/mL (≈ 31.5 µM); MIC [6]: 8 µg/mL (≈ 15.8 µM); MIC [7]: ≤ 0.03 µg/mL; MIC [8]: 16 µg/mL (≈ 31.5 µM); MIC [9]: ≤ 0.03 µg/mL
CC[C@H]1OC(=O)[C@H](C)[C@@H](O[C@H]2C[C@@](C)(OC)[C@@H](O)[C@H](C)O2)[C@H](C)[C@@H](O[C@@H]2O[C@H](C)C[C@H](N(C)C)[C@H]2O)[C@](C)(O)C[C@@H](C)C(=O)[C@H](C)[C@@H](O)[C@]1(C)O [Erythromycin] | 0.001 to 0.004 µg/mL (≈ 0.00136 to 0.00545 µM) | 0.002 to 0.016 µg/mL (≈ 0.00273 to 0.0218 µM) | – | – | – | –
Cc1nccnc1/C=C/[C@@]1(C)C[C@@H](OC(=O)CSC2CCNCC2)[C@]2(C)[C@H](C)CC[C@]3(CCC(=O)[C@H]32)[C@@H](C)[C@@H]1O [BC-9842, 12-epi-12-desvinyl-14-O-[(Piperidin-4-ylsulfanyl]-acetyl]-12-[2-(3-methyl-pyrazin-2-yl)-ethenyl]-mutilin] | 0.001 to 0.004 µg/mL (≈ 0.00175 to 0.00702 µM) | 0.001 to 0.004 µg/mL (≈ 0.00175 to 0.00702 µM) | 0.03 to 0.05 µg/mL (≈ 0.0526 to 0.0877 µM) | 0.015 to 0.25 µg/mL (≈ 0.0263 to 0.439 µM) | 0.015 to 0.12 µg/mL (≈ 0.0263 to 0.211 µM) | –
C[C@H]1c2cccc(O)c2C(=O)C2=C(O)[C@]3(O)C(=O)C(C(N)=O)=C(O)[C@@H](N(C)C)[C@@H]3[C@@H](O)[C@@H]21 [Doxycycline] | 0.03 to 0.5 µg/mL (≈ 0.0675 to 1.13 µM) | 0.03 to 0.5 µg/mL (≈ 0.0675 to 1.13 µM) | – | – | – | –
C=C[C@]1(C)C[C@@H](OC(=O)CO)[C@]2(C)[C@H](C)CC[C@]3(CCC(=O)[C@H]32)[C@@H](C)[C@@H]1O [Pleuromutilin] | 0.12 to 2 µg/mL (≈ 0.317 to 5.28 µM) | 0.12 to 1 µg/mL (≈ 0.317 to 2.64 µM) | – | – | – | –
Cc1nccnc1/C=C/[C@@]1(C)C[C@@H](OC(=O)CS[C@H]2CO[C@H]3[C@@H]2OC[C@@H]3N)[C@]2(C)[C@H](C)CC[C@]3(CCC(=O)[C@H]32)[C@@H](C)[C@@H]1O [Example 3, 12-epi-12-Desvinyl-14-O-{[(3S,3aR,6S,6aS)-3-amino-2,3,3a,5,6,6a-hexahydrofuro[3,2-b]furan-6-yl]sulfanylacetyl}-12-[(E)-2-(3-methyl-pyrazin-2-yl)-ethenyl]-mutilin dihydrochloride] | 0.001 to 0.008 µg/mL | 0.001 to 0.004 µg/mL | 0.03 to 0.5 µg/mL | 0.03 to 0.25 µg/mL | 0.015 to 0.12 µg/mL | IC50 at 2 h [2]: > 433 µM; MIC [5]: 1 µg/mL; MIC [6]: 1 µg/mL; MIC [7]: ≤ 0.03 µg/mL; MIC [8]: 0.5 to 1 µg/mL; MIC [9]: ≤ 0.03 µg/mL
12-epi-12-desvinyl-14-O-[(azepan-4-ylsulfanyl)-acetyl]-12-((E)-2-pyridin-3-yl-ethenyl) mutilin hydrochloride [Example 154 of WO 2015/110481, reference compound] | – | – | – | – | – | MIC Staphylococcus aureus cfr (+) (n = 2) [5, 13]: 0.5 to 4 µg/mL; MIC Staphylococcus aureus vga(A) (+) [6]: 2 to 4 µg/mL; MIC Staphylococcus aureus ATCC49951 [7]: ≤0.03 µg/mL; MIC Streptococcus agalactiae lsa(E) (n = 2) [8, 13]: 4 to 8 µg/mL; MIC Streptococcus pneumoniae ATCC49619 [9]: ≤0.03 µg/mL
CO/N=C(\C(=O)N[C@@H]1C(=O)N2C(C(=O)O)=C(COC(N)=O)CS[C@H]12)c1ccco1 [Cefuroxime] | 0.016 to 0.25 µg/mL (≈ 0.0377 to 0.589 µM) | 0.016 to 0.25 µg/mL (≈ 0.0377 to 0.589 µM) | – | – | – | –
C[C@@H]1CC[C@@]23CCC(=O)[C@H]2[C@]1(C)[C@H](OC(=O)CS[C@H]1CO[C@H]2[C@@H]1OC[C@@H]2N)C[C@](C)(/C=C/c1cncnc1)[C@@H](O)[C@@H]3C [Example 2, 12-epi-12-Desvinyl-14-O-{[(3S,3aR,6S,6aS)-3-amino-2,3,3a,5,6,6a-hexahydrofuro[3,2-b]furan-6-yl]sulfanylacetyl}-12-[(E)-2-(pyrimidin-5-yl)-ethenyl]-mutilin dihydrochloride] | 0.001 to 0.004 µg/mL | 0.001 to 0.002 µg/mL | 0.015 to 0.12 µg/mL | 0.015 to 0.06 µg/mL | 0.015 to 0.03 µg/mL | IC50 at 2 h [2]: > 609 µM; MIC [5]: 0.12 to 1 µg/mL; MIC [6]: 1 µg/mL; MIC [7]: ≤ 0.03 µg/mL; MIC [8]: 0.03 to 0.06 µg/mL; MIC [9]: ≤ 0.03 µg/mL
